According to publication PMC9610999, “Itraconazole-Induced Increases in Gilteritinib Exposure Are Mediated by CYP3A and OATP1B” (Molecules, 2022):
Where two headings read alike, the source gives them in different places.

What was measured:
[1] = cited from earlier work
OATP1B1 = molecular target: T1, OATP1B1 (Homo sapiens, UniProt Q9Y6L6); assay: Competitive counterflow assay with ACE in OATP1B1 overexpressing HEK293 cells; format: cell-based; conditions: gilteritinib 0.1–20 μM, 5 μM ACE, normalized to ACE alone
T1 construct: expressed in transfected cells; host or cells: HEK293
T1 sequence (Q9Y6L6 1-691): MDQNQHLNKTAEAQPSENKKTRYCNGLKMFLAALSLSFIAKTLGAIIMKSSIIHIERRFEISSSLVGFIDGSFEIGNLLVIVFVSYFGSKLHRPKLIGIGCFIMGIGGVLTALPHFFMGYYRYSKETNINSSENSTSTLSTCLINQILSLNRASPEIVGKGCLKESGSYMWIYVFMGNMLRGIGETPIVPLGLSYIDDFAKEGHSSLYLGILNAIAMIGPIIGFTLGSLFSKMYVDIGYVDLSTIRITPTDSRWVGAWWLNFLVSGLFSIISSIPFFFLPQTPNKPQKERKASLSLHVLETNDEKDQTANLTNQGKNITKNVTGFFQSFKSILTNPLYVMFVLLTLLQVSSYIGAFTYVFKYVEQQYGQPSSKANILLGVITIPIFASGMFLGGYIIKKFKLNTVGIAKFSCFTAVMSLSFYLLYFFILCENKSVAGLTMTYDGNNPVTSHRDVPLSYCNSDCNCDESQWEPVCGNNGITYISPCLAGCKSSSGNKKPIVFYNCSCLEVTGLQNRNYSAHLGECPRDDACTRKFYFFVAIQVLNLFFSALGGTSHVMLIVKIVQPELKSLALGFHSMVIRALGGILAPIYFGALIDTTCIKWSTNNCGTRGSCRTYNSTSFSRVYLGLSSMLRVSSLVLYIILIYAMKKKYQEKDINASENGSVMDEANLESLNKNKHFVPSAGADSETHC
Procedure: OATP1B1 overexpressing cells or vector control were seeded in 96-well plates in 200 μL DMEM and incubated for 24 h. The medium was aspirated off and the cells were washed three times with PBS at room temperature. The cells were then treated with 100 μL of 5 μM ACE and incubated at 37 °C for 15 min in uptake buffer. The supernatant was aspirated off and 100 μL of 5 μM ACE alone or in combination with DMSO or gilteritinib (0.1–20 μM) in uptake buffer were added to the cells. The plates were further incubated for 20 min at 37 °C. The supernatant was removed, and the cells were washed three times with 200 μL of ice-cold PBS. Lastly, 200 μL of 0.1 N NaOH was added to cells and incubated for 20 min at room temperature. Fluorescence was measured on a plate reader at excitation and emission wavelengths of 460 and 510 nm, respectively. The intracellular concentrations of ACE were calculated by comparison of fluorescence values observed with control samples incubated with ACE alone, which were set to 100%.

[2] = Plasma pharmacokinetics of oral gilteritinib in mice, with or without itraconazole pretreatment; format: in vivo; conditions: for Cmax / AUC(0-t): male, mouse, plasma, po, 10 mg/kg, gilteritinib 10 mg/kg p.o., mean (SD); for AUC(0-t): read-out: Gilteritinib AUC0–24h
Excerpt: Male and female CYP3A(−/−) mice and age- and sex-matched wild-type mice on an FVB/NTac (CYP3A(+/+)) background were bred in-house. Male OATP1B2(−/−) mice and age and sex-matched wild-type mice on a DBA1/lacJ (OATP1B2(+/+)) background were bred in-house. All mice were aged 8–16 weeks and weighed 18–30 g. Littermates of the same sex were housed in groups of five or fewer in a temperature- and light-controlled environment (12-h light/dark cycles) in cages lined with absorbent bedding. Mice were given free access to standard food and water. All breeding and experimental procedures were conducted with the approval of the University Laboratory Animal Resources Animal Care and Use Committee at The Ohio State University under protocol number 201500000101-R2.
For in vivo pharmacokinetic studies, mice were randomly divided into experimental groups of equal size. Gilteritinib powder was dissolved in 0.5% methylcellulose solution in distilled sterile water at a concentration of 2 mg/mL and was administered via oral gavage at a body weight normalized dose of 10 mg/kg. The dose of gilteritinib was chosen based on previous preclinical characterization of gilteritinib pharmacokinetics. Itraconazole powder was dissolved in a solvent comprised of 5% DMSO, 70% PEG300, and 25% distilled sterile water and administered orally at a dose of 100 mg/kg. The dose of itraconazole was based on previous work studying preclinical DDI with itraconazole. For combination treatments, itraconazole was always given 30 min prior to gilteritinib.
Pharmacokinetic studies were performed in accordance with a repeat sampling strategy described previously. After a single dose of gilteritinib, 20–40 μL of whole blood samples were collected from each mouse at time points ranging from 0.5–24 h after dosing. Samples procured during the first three time points were collected from the submaxillary vein using a sterile, disposable 4 mm or 5 mm Goldenrod animal blood lancet and collected into a glass micro-hematocrit heparinized capillary tube. For samples obtained at the fourth and fifth time points, the mice were sedated using 2% isoflurane and whole blood was obtained via the retro-orbital venous plexus. At the final time point, mice were euthanized via carbon dioxide inhalation, whole blood was collected by cardiac puncture with a needle and 1-mL syringe and transferred to a 1.5-mL heparinized tube. All samples were centrifuged at 13,000× g for 5 min and the plasma supernatant was transferred to a 0.5-mL tube, snap-frozen on dry ice, and stored at −80 °C until the day of analysis.
Pharmacokinetic parameters were estimated using non-compartmental analyses using Phoenix WinNonlin version 8.1 (Certara, Princeton, NJ, USA). Estimated measures of exposure included the peak plasma concentration (Cmax) and the area under the plasma concentration–time curve (AUC).

[3] = CYP3A(−/−) on FVB/NTac background, CYP3A(−/−) male mice, itraconazole 100 mg/kg 30 min before
[4] = CYP3A(−/−) on FVB/NTac background, CYP3A(−/−) male mice, no co-treatment
[5] = DBA/1J (wild-type), Wild-type DBA/1J male mice, no co-treatment
[6] = FVB (wild-type), Wild-type FVB male mice, itraconazole 100 mg/kg 30 min before
[7] = FVB (wild-type), Wild-type FVB male mice, no co-treatment
[8] = OATP1B2(−/−) on DBA1/lacJ background, OATP1B2(−/−) male mice, itraconazole 100 mg/kg 30 min before
[9] = OATP1B2(−/−) on DBA1/lacJ background, OATP1B2(−/−) male mice, no co-treatment, experiment compared with itraconazole co-treatment
[10] = OATP1B2(−/−) on DBA1/lacJ background, OATP1B2(−/−) male mice, no co-treatment, experiment compared with wild-type DBA/1J

For `CCc1nc(C(N)=O)c(Nc2ccc(N3CCC(N4CCN(C)CC4)CC3)c(OC)c2)nc1NC1CCOCC1` [Gilteritinib], the Maximum tolerated dose ([1]; ref 4) is given as 300 mg, the Maximum tolerated dose ([1]; ref 29) is given as 200 mg and the “Effect on fluorescent signal of ACE in cells (competitive counterflow; transported substrate)” value (OATP1B1) is given as “decreased the fluorescent signal in cells in a concentration-dependent manner”. For the same compound, the “Gilteritinib AUC Fold Increase” value ([2]; CYP3A(−/−) mice, no co-treatment, vs. WT) was 1.3 (vs. WT) fold, the “Gilteritinib AUC Fold Increase” value ([2]; CYP3A(−/−) mice, no co-treatment, vs. WT, listed as gilteritinib) was 1.3 fold and the “Gilteritinib AUC Fold Increase” value ([2]; CYP3A(−/−) mice, with itraconazole 100 mg/kg vs. Vehicle) was 0.97 (vs. Vehicle) fold. The “Gilteritinib AUC Fold Increase” value ([2]; OATP1B2(−/−) mice, no co-treatment, vs. WT) was 1.4 (vs. WT) fold, the “Gilteritinib AUC Fold Increase” value ([2]; OATP1B2(−/−) mice, no co-treatment, vs. WT, listed as gilteritinib) was 1.4 fold and the “Gilteritinib AUC Fold Increase” value ([2]; OATP1B2(−/−) mice, with itraconazole 100 mg/kg vs. Vehicle) was 0.84 (vs. Vehicle) fold. For the same compound, the “Gilteritinib AUC Fold Increase” value ([2]; Wild-type FVB mice, with itraconazole 100 mg/kg vs. Vehicle) was 2.5 (vs. Vehicle) fold, the “Gilteritinib AUC Fold Increase” value ([2]; Wild-type FVB mice, with itraconazole 100 mg/kg vs. Vehicle, listed as gilteritinib) was “about 2.5 fold” and the Cmax [2, 3] was 430 ng/mL. The AUC(0-t) [2, 3] was 5840 ng·h/mL, the Cmax [2, 4] was 380 ng/mL and the AUC(0-t) [2, 4] was 5990 ng·h/mL. It also gave a Cmax [2, 5] of 260 ng/mL, an AUC(0-t) [2, 5] of 4550 ng·h/mL and a Cmax [2, 6] of 960 ng/mL. It also gave an AUC(0-t) [2, 6] of 11500 ng·h/mL, a Cmax [2, 7] of 310 ng/mL and an AUC(0-t) [2, 7] of 4650 ng·h/mL. It also gave a Cmax [2, 8] of 1350 ng/mL, an AUC(0-t) [2, 8] of 15000 ng·h/mL and a Cmax [2, 9] of 1430 ng/mL. For the same compound, the AUC(0-t) [2, 9] was 17800 ng·h/mL, the Cmax [2, 10] was 390 ng/mL and the AUC(0-t) [2, 10] was 6160 ng·h/mL.
